Reference: patent publication US10150760B2, “Compounds for use in preparing heterocyclic triazole agonists of the APJ receptor” (AMGEN INC., priority 2016, dated 2018)

Target: human APJ receptor (Homo sapiens (Human), UniProt P35414)
Test: [35S]GTPγS binding assay on membranes from CHO cells stably expressing human APJ receptor
Format: biochemical
Conditions: read-out: Activity hAPJ SPA EC50 IP
In short: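 Membranes from CHO cells stably expressing human APJ incubated with ligand, 0.2 nM [35S]GTPγS and WGA SPA beads in HEPES pH 7.5 with 5 mM MgCl2, 200 mM NaCl, 3 μM GDP, 90 min at RT. Nonspecific binding defined with 100 μM GTPγS; EC50 by non-linear regression.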

human APJ receptor, sequence (P35414 whole entry): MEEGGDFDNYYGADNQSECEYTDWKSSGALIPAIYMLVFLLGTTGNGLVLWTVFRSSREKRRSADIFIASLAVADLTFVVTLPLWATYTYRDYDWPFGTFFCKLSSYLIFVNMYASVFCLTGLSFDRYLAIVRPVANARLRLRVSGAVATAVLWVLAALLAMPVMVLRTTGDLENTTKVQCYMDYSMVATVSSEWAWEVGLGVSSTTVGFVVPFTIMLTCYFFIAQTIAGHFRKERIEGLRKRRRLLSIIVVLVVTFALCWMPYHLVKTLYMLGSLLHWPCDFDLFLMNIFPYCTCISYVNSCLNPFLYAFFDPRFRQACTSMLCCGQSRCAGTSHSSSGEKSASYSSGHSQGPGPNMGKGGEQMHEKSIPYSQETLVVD

| Substance | EC50 |
| --- | --- |
| (1S,2S)-1-(5-chloro-2-pyrimidinyl)-N-(4-cyclopropyl-5-((2S,5S)-5-methyltetrahydro-2-furanyl)-4H-1,2,4-triazol-3-yl)-1-(2-propanyloxy)-2-propanesulfonamide or (1S,2S)-1-(5-chloro-2-pyrimidinyl)-N-(4-cyclopropyl-5-((2R,5R)-5-methyltetrahydro-2-furanyl)-4H-1,2,4-triazol-3-yl)-1-(2-propanyloxy)-2-propanesulfonamide [Example 352.0] | 1490 nM |
| (1S,2S)-1-(5-chloropyrimidin-2-yl)-1-isopropoxy-N-(4-(1-(methoxymethyl)cyclopropyl)-5-((R)-tetrahydrofuran-3-yl)-4H-1,2,4-triazol-3-yl)propane-2-sulfonamide or (1S,2S)-1-(5-chloropyrimidin-2-yl)-1-isopropoxy-N-(4-(1-(methoxymethyl)cyclopropyl)-5-((S)-tetrahydrofuran-3-yl)-4H-1,2,4-triazol-3-yl)propane-2-sulfonamide [Example 319.0] | 130 nM |
| (1S,2S)-1-(5-chloropyrimidin-2-yl)-1-isopropoxy-N-(4-(1-(methoxymethyl)cyclopropyl)-5-((R)-tetrahydrofuran-3-yl)-4H-1,2,4-triazol-3-yl)propane-2-sulfonamide or (1S,2S)-1-(5-chloropyrimidin-2-yl)-1-isopropoxy-N-(4-(1-(methoxymethyl)cyclopropyl)-5-((S)-tetrahydrofuran-3-yl)-4H-1,2,4-triazol-3-yl)propane-2-sulfonamide [Example 320.0] | 45 nM |
| (1S,2S)-1-isopropoxy-1-(5-methylpyrazin-2-yl)-N-(4-(tetrahydro-2H-pyran-4-yl)-5-((R)-tetrahydrofuran-2-yl)-4H-1,2,4-triazol-3-yl)propane-2-sulfonamide or (1S,2S)-1-isopropoxy-1-(5-methylpyrazin-2-yl)-N-(4-(tetrahydro-2H-pyran-4-yl)-5-((S)-tetrahydrofuran-2-yl)-4H-1,2,4-triazol-3-yl)propane-2-sulfonamide [Example 260.0] | > 4200 nM |
| (1S,2S)-1-isopropoxy-1-(5-methylpyrazin-2-yl)-N-(4-(tetrahydro-2H-pyran-4-yl)-5-((R)-tetrahydrofuran-2-yl)-4H-1,2,4-triazol-3-yl)propane-2-sulfonamide or (1S,2S)-1-isopropoxy-1-(5-methylpyrazin-2-yl)-N-(4-(tetrahydro-2H-pyran-4-yl)-5-((S)-tetrahydrofuran-2-yl)-4H-1,2,4-triazol-3-yl)propane-2-sulfonamide [Example 261.0] | 150 nM |
| (1S,2S)-1-isopropoxy-1-(5-methylpyrazin-2-yl)-N-(5-((2S,5S)-5-methyltetrahydrofuran-2-yl)-4-(tetrahydro-2H-pyran-4-yl)-4H-1,2,4-triazol-3-yl)propane-2-sulfonamide or (1S,2S)-1-isopropoxy-1-(5-methylpyrazin-2-yl)-N-(5-((2R,5R)-5-methyltetrahydrofuran-2-yl)-4-(tetrahydro-2H-pyran-4-yl)-4H-1,2,4-triazol-3-yl)propane-2-sulfonamide [Example 262.0] | > 4200 nM |
| (1S,2S)-1-isopropoxy-1-(5-methylpyrazin-2-yl)-N-(5-((2S,5S)-5-methyltetrahydrofuran-2-yl)-4-(tetrahydro-2H-pyran-4-yl)-4H-1,2,4-triazol-3-yl)propane-2-sulfonamide or (1S,2S)-1-isopropoxy-1-(5-methylpyrazin-2-yl)-N-(5-((2R,5R)-5-methyltetrahydrofuran-2-yl)-4-(tetrahydro-2H-pyran-4-yl)-4H-1,2,4-triazol-3-yl)propane-2-sulfonamide [Example 263.0] | 460 nM |
| (1S,2S)-N-(4-(1,3-dimethoxy-2-propanyl)-5-((2R,5R)-5-methyltetrahydro-2-furanyl)-4H-1,2,4-triazol-3-yl)-1-(5-methyl-2-pyridinyl)-1-(2-propanyloxy)-2-propanesulfonamide or (1S,2S)-N-(4-(1,3-dimethoxy-2-propanyl)-5-((2S,5S)-5-methyltetrahydro-2-furanyl)-4H-1,2,4-triazol-3-yl)-1-(5-methyl-2-pyridinyl)-1-(2-propanyloxy)-2-propanesulfonamide [Example 366.0] | 680 nM |

Results, then the substance that gave them:

| EC50 | Substance |
| --- | --- |
| 92 nM | (1S,2S)-1-(5-chloro-2-pyrimidinyl)-N-(4-(1,3-dimethoxy-2-propanyl)-5-((2R,5R)-5-methyltetrahydro-2-furanyl)-4H-1,2,4-triazol-3-yl)-1-(2-propanyloxy)-2-propanesulfonamide or (1S,2S)-1-(5-chloro-2-pyrimidinyl)-N-(4-(1,3-dimethoxy-2-propanyl)-5-((2S,5S)-5-methyltetrahydro-2-furanyl)-4H-1,2,4-triazol-3-yl)-1-(2-propanyloxy)-2-propanesulfonamide [Example 354.0] |
| 1.2 nM | (1S,2S)-1-(5-chloro-2-pyrimidinyl)-N-(4-(1,3-dimethoxy-2-propanyl)-5-((2R,5R)-5-methyltetrahydro-2-furanyl)-4H-1,2,4-triazol-3-yl)-1-(2-propanyloxy)-2-propanesulfonamide or (1S,2S)-1-(5-chloro-2-pyrimidinyl)-N-(4-(1,3-dimethoxy-2-propanyl)-5-((2S,5S)-5-methyltetrahydro-2-furanyl)-4H-1,2,4-triazol-3-yl)-1-(2-propanyloxy)-2-propanesulfonamide [Example 355.0] |
| 100 nM | (1S,2S)-1-(5-chloro-2-pyrimidinyl)-N-(4-cyclopropyl-5-((2S,5S)-5-methyltetrahydro-2-furanyl)-4H-1,2,4-triazol-3-yl)-1-(2-propanyloxy)-2-propanesulfonamide or (1S,2S)-1-(5-chloro-2-pyrimidinyl)-N-(4-cyclopropyl-5-((2R,5R)-5-methyltetrahydro-2-furanyl)-4H-1,2,4-triazol-3-yl)-1-(2-propanyloxy)-2-propanesulfonamide [Example 353.0] |
| 310 nM | (1S,2S)-N-(4-(1,3-dimethoxy-2-propanyl)-5-((2R,5R)-5-methyltetrahydro-2-furanyl)-4H-1,2,4-triazol-3-yl)-1-(5-fluoro-2-pyrimidinyl)-1-(2-propanyloxy)-2-propanesulfonamide or (1S,2S)-N-(4-(1,3-dimethoxy-2-propanyl)-5-((2S,5S)-5-methyltetrahydro-2-furanyl)-4H-1,2,4-triazol-3-yl)-1-(5-fluoro-2-pyrimidinyl)-1-(2-propanyloxy)-2-propanesulfonamide [Example 360.0] |
| 10 nM | (1S,2S)-N-(4-(1,3-dimethoxy-2-propanyl)-5-((2R,5R)-5-methyltetrahydro-2-furanyl)-4H-1,2,4-triazol-3-yl)-1-(5-fluoro-2-pyrimidinyl)-1-(2-propanyloxy)-2-propanesulfonamide or (1S,2S)-N-(4-(1,3-dimethoxy-2-propanyl)-5-((2S,5S)-5-methyltetrahydro-2-furanyl)-4H-1,2,4-triazol-3-yl)-1-(5-fluoro-2-pyrimidinyl)-1-(2-propanyloxy)-2-propanesulfonamide [Example 361.0] |
| 390 nM | (1S,2S)-N-(4-(1,3-dimethoxy-2-propanyl)-5-((2R,5R)-5-methyltetrahydro-2-furanyl)-4H-1,2,4-triazol-3-yl)-1-(5-methoxy-2-pyrimidinyl)-1-(2-propanyloxy)-2-propanesulfonamide or (1S,2S)-N-(4-(1,3-dimethoxy-2-propanyl)-5-((2S,5S)-5-methyltetrahydro-2-furanyl)-4H-1,2,4-triazol-3-yl)-1-(5-methoxy-2-pyrimidinyl)-1-(2-propanyloxy)-2-propanesulfonamide [Example 362.0] |
| 28 nM | (1S,2S)-N-(4-(1,3-dimethoxy-2-propanyl)-5-((2R,5R)-5-methyltetrahydro-2-furanyl)-4H-1,2,4-triazol-3-yl)-1-(5-methoxy-2-pyrimidinyl)-1-(2-propanyloxy)-2-propanesulfonamide or (1S,2S)-N-(4-(1,3-dimethoxy-2-propanyl)-5-((2S,5S)-5-methyltetrahydro-2-furanyl)-4H-1,2,4-triazol-3-yl)-1-(5-methoxy-2-pyrimidinyl)-1-(2-propanyloxy)-2-propanesulfonamide [Example 363.0] |
| 69 nM | (1S,2S)-N-(4-(1,3-dimethoxy-2-propanyl)-5-((2R,5R)-5-methyltetrahydro-2-furanyl)-4H-1,2,4-triazol-3-yl)-1-(5-methyl-2-pyrazinyl)-1-(2-propanyloxy)-2-propanesulfonamide or (1S,2S)-N-(4-(1,3-dimethoxy-2-propanyl)-5-((2S,5S)-5-methyltetrahydro-2-furanyl)-4H-1,2,4-triazol-3-yl)-1-(5-methyl-2-pyrazinyl)-1-(2-propanyloxy)-2-propanesulfonamide [Example 364.0] |
| 72 nM | (1S,2S)-N-(4-(1,3-dimethoxy-2-propanyl)-5-((2R,5R)-5-methyltetrahydro-2-furanyl)-4H-1,2,4-triazol-3-yl)-1-(5-methyl-2-pyrazinyl)-1-(2-propanyloxy)-2-propanesulfonamide or (1S,2S)-N-(4-(1,3-dimethoxy-2-propanyl)-5-((2S,5S)-5-methyltetrahydro-2-furanyl)-4H-1,2,4-triazol-3-yl)-1-(5-methyl-2-pyrazinyl)-1-(2-propanyloxy)-2-propanesulfonamide [Example 365.0] |
| 12 nM | (1S,2S)-N-(4-(1,3-dimethoxy-2-propanyl)-5-((2R,5R)-5-methyltetrahydro-2-furanyl)-4H-1,2,4-triazol-3-yl)-1-(5-methyl-2-pyridinyl)-1-(2-propanyloxy)-2-propanesulfonamide or (1S,2S)-N-(4-(1,3-dimethoxy-2-propanyl)-5-((2S,5S)-5-methyltetrahydro-2-furanyl)-4H-1,2,4-triazol-3-yl)-1-(5-methyl-2-pyridinyl)-1-(2-propanyloxy)-2-propanesulfonamide [Example 367.0] |
